Consider 17 compounds from patent US8003660B2, “Modulators of muscarinic receptors” (Vertex Pharmaceuticals Incorporated, priority 2006, dated 2011).

A word on the EC50: it is the concentration needed to bring the measured effect to its halfway point.

Each structure is given as a SMILES string.

Type in all cases: cell-based
For assay [1], the target named is T1, M1 muscarinic receptor (Homo sapiens, UniProt P11229).
T1 construct: expressed in transfected cells; host or cells: CHO (M1-CHO)
T1 sequence (P11229 1-460): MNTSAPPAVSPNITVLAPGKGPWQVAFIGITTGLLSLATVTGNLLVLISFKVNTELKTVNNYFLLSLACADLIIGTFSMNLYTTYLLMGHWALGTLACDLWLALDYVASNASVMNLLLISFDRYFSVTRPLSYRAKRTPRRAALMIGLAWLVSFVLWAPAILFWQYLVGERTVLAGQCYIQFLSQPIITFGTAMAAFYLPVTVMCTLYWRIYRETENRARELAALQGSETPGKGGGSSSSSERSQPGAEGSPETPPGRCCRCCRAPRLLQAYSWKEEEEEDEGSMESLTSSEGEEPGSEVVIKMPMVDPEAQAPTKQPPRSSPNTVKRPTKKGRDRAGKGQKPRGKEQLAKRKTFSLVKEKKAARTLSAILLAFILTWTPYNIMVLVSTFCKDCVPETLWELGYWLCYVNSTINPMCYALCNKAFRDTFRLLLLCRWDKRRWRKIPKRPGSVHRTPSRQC
Nature of the assay: Functional mobilization of intracellular calcium (FLIPR) in CHO cells expressing M1. The following applies: for EC50: CHO cells expressing M1, FLIPR calcium; for Emax: CHO, 100% = maximum response obtained with the Carbachol control, read-out: M1 Efficacy. A digest of the protocol:
(§1)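 Recombinant CHO cells loaded with Fluo-3 AM or Calcium 3 dye in pH 7.4 buffer containing 1 mM probenecid, with 0.5% final DMSO. For agonism, compound is added directly. For inhibition, it is preincubated 15 min, or co-applied, before carbachol at EC80. FLIPR fluorescence (ex 488, em 540 nm) is recorded for 60 s.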

The target in assay [2] is T2, M4 muscarinic receptor (Homo sapiens, UniProt P08173).
T2 construct: expressed in transfected cells; host or cells: CHO (M4-CHO)
T2 sequence (P08173 1-479): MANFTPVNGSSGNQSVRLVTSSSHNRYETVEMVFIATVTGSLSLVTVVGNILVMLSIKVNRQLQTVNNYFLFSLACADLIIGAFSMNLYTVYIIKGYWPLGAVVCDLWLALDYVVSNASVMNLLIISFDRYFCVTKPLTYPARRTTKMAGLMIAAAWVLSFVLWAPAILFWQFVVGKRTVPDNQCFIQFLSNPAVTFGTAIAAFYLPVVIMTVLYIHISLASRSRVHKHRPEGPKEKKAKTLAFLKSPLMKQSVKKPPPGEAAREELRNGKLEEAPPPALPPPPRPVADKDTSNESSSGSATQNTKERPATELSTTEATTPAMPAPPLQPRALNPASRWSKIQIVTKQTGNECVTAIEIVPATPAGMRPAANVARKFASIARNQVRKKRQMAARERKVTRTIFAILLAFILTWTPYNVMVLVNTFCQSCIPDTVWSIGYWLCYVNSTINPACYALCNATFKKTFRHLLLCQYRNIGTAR
Nature of the assay: Functional mobilization of intracellular calcium (FLIPR) in CHO cells expressing M4. The following applies: for EC50: CHO cells expressing M4, FLIPR calcium; for Emax: CHO, 100% = maximum response obtained with the Carbachol control, read-out: M4 Efficacy. A digest of the protocol: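 Read-out: FLIPR fluorescence (ex 488, em 540 nm) over 60 s. Recombinant CHO lines are dye-loaded (Fluo-3 AM or Calcium 3) with 1 mM probenecid. For antagonist mode, compound is pre-incubated 15 min, or co-applied, then carbachol is added at 3× EC80 per subtype.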

Assay [3] has as its target T3, M3 muscarinic receptor (Homo sapiens, UniProt P20309).
T3 construct: expressed in transfected cells; host or cells: CHO (M3-CHO)
In words: Functional mobilization of intracellular calcium (FLIPR) in CHO cells expressing M3. Particulars: for EC50: CHO cells expressing M3, FLIPR calcium; for Emax: CHO, 100% = maximum response obtained with the Carbachol control, read-out: M3 Efficacy. A digest of the protocol:
as §1
(In general: Calcium assays in cells follow changes in intracellular calcium, usually with a dye or a luminescent sensor.)

Assay [4] concerns the target T4, M2 muscarinic receptor (Homo sapiens, UniProt P08172).
T4 construct: expressed in transfected cells; host or cells: CHO (M2-CHO)
T4 sequence (P08172 1-466): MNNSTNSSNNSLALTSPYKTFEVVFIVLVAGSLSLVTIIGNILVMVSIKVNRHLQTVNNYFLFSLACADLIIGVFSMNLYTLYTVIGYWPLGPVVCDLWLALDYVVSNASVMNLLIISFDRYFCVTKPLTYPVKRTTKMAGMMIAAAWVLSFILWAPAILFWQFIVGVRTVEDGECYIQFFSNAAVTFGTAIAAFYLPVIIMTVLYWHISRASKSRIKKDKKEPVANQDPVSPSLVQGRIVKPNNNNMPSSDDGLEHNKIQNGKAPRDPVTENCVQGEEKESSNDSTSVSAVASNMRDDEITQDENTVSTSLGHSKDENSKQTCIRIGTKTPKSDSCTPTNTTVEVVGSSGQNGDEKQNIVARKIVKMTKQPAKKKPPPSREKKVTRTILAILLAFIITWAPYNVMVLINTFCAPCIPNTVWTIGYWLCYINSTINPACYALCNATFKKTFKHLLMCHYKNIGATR
Nature of the assay: Functional mobilization of intracellular calcium (FLIPR) in CHO cells expressing M2. Particulars: for EC50: CHO cells expressing M2, FLIPR calcium; for Emax: CHO, 100% = maximum response obtained with the Carbachol control, read-out: M2 Efficacy. In a few lines:
as §1

T3 sequence (P20309 whole entry): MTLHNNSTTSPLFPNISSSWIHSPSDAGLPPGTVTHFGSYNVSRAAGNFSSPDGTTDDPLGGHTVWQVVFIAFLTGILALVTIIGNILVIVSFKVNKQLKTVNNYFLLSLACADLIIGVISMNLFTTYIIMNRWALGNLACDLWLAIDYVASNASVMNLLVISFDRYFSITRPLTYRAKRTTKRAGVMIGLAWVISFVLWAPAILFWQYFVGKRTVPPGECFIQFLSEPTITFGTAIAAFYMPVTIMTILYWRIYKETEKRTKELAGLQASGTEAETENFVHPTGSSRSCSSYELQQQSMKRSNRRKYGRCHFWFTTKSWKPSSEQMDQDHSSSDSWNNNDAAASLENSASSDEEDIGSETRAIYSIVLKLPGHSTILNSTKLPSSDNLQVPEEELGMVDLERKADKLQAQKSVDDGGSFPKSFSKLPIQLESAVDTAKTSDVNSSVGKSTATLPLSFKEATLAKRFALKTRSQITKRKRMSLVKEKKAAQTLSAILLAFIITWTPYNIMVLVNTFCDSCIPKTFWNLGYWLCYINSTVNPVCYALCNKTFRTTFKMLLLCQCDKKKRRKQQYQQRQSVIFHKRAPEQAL

For `CC(=O)N[C@H]1CCC2(CCN(CCC(C)CC(C)(C)C)CC2)c2ccccc21` (stereo partly shown) [compound 45], the EC50 is less than 2 µM in assay [1], more than 5 µM in assay [2], more than 5 µM in assay [3] and 2 to 5 µM in assay [4]. For the same compound, the Emax in assay [1] was 25 to 100%; in assay [2], less than 25%; in assay [3] it was 25 to 100%; in assay [4], less than 25%.
Take `CC(=O)N[C@H](C)C(=O)N[C@H]1CCC2(CCN(CCC(C)(C)C)CC2)c2cc(F)ccc21` [compound 46]: the EC50 was less than 2 µM in assay [1], less than 2 µM in assay [2], more than 5 µM in assay [3] and less than 2 µM in assay [4]. For the same compound, the Emax is 25 to 100% in assay [1], 25 to 100% in assay [2], less than 25% in assay [3] and 25 to 100% in assay [4].
Turning to `CC(=O)N(C(C)C)[C@H]1CCC2(CCN(CCC(C)C)CC2)c2ccccc21` [compound 47], the concentration giving a half-maximal response (EC50) is 2 to 5 µM in assay [1], 2 to 5 µM in assay [2], more than 5 µM in assay [3] and more than 5 µM in assay [4]. The Emax in assay [1] is 25 to 100%; in assay [2], 25 to 100%; in assay [3] it was less than 25%; in assay [4], less than 25%.
For `CCCC(CCC)N1CCC2(CC[C@H](NC(=O)C3CC3)c3ccccc32)CC1` [compound 48], the EC50 in assay [1], in assay [2], in assay [3] and in assay [4] was more than 5 µM in each case. Further, the Emax in assay [1], in assay [2], in assay [3] and in assay [4] was less than 25% each time.
For `CSC(C)CCN1CCC2(CC[C@H](NC(C)=O)c3ccccc32)CC1` (stereo partly shown) [compound 49], the EC50 in assay [1] is 2 to 5 µM; in assay [2], less than 2 µM; in assay [3], more than 5 µM; in assay [4], more than 5 µM. Further, the Emax was 25 to 100% in assay [1], 25 to 100% in assay [2], less than 25% in assay [3] and less than 25% in assay [4].
For `COC(=O)CN(C(C)=O)[C@H]1CCC2(CCN(CCC(C)(C)C)CC2)c2ccccc21` [compound 50], the 50% effective concentration (EC50) in assay [1] was more than 5 µM; in assay [2] it was less than 2 µM; in assay [3] it was more than 5 µM; in assay [4] it was more than 5 µM. For the same compound, the Emax in assay [1] was 25 to 100%; in assay [2] it was 25 to 100%; in assay [3], less than 25%; in assay [4], less than 25%.
Take `CN(C)C(=O)N(C)[C@H]1CCC2(CCN(CCC(C)(C)C)CC2)c2ccccc21` [compound 51]: the half-maximal effective concentration (EC50) in assay [1] is less than 2 µM; in assay [2] it was less than 2 µM; in assay [3], more than 5 µM; in assay [4], more than 5 µM. Further, the Emax was 25 to 100% in assay [1], 25 to 100% in assay [2], less than 25% in assay [3] and less than 25% in assay [4].
`C[C@H](C(=O)N[C@H]1CCC2(CCN(CCC(C)(C)C)CC2)c2cc(F)ccc21)N1CCCC1=O` [compound 52]: the EC50 in assay [1] is less than 2 µM; in assay [2], less than 2 µM; in assay [3] it was more than 5 µM; in assay [4], less than 2 µM. In addition, the Emax in assay [1] was 25 to 100%; in assay [2], 25 to 100%; in assay [3] it was less than 25%; in assay [4], less than 25%.
On to `CC(CC(C)(C)C)N1CCC2(CC[C@H](NC(=O)N(C)C)c3ccccc32)CC1` (stereo partly shown) [compound 53], for which the half-maximal effective concentration (EC50) in assay [1] was more than 5 µM; in assay [2], less than 2 µM; in assay [3], more than 5 µM; in assay [4], more than 5 µM. The Emax is less than 25% in assay [1], 25 to 100% in assay [2], less than 25% in assay [3] and less than 25% in assay [4].
Regarding `CCN(C(=O)CCC(C)=O)[C@H]1CCC2(CCN(CCC(C)(C)C)CC2)c2ccccc21` [compound 54], the EC50 in assay [1] was less than 2 µM; in assay [2] it was less than 2 µM; in assay [3], more than 5 µM; in assay [4], more than 5 µM. In addition, the Emax in assay [1] was 25 to 100%; in assay [2] it was 25 to 100%; in assay [3], less than 25%; in assay [4], less than 25%.
In the case of `CC(C)(C)CCN1CCC2(CC[C@@H](NC(=O)C3CCCN(C(=O)C4CC4)C3)c3ccccc32)CC1` (stereo partly shown) [compound 55], the EC50 in assay [1] was 2 to 5 µM; in assay [2], less than 2 µM; in assay [3], more than 5 µM; in assay [4] it was less than 2 µM. Also, the Emax is less than 25% in assay [1], 25 to 100% in assay [2], less than 25% in assay [3] and less than 25% in assay [4].
As to `CC[C@@H](C)CN1CCC2(CC[C@H](NC(C)=O)c3ccccc32)CC1` [compound 56], the half-maximal effective concentration (EC50) is less than 2 µM in assay [1], less than 2 µM in assay [2], more than 5 µM in assay [3] and less than 2 µM in assay [4]. In addition, the Emax was 25 to 100% in assay [1], 25 to 100% in assay [2], less than 25% in assay [3] and 25 to 100% in assay [4].
As to `CC(C)(C)CCN1CCC2(CC[C@H](N3CCCCC3=O)c3ccccc32)CC1` [compound 57], the EC50 in assay [1] was 2 to 5 µM; in assay [2] it was less than 2 µM; in assay [3], more than 5 µM; in assay [4], more than 5 µM. The Emax was 25 to 100% in assay [1], 25 to 100% in assay [2], less than 25% in assay [3] and less than 25% in assay [4].
For `Cn1cc(C(=O)N[C@H]2CCC3(CCN(CCC(C)(C)C)CC3)c3ccccc32)cn1` [compound 58], the EC50 was less than 2 µM in assay [1], less than 2 µM in assay [2], more than 5 µM in assay [3] and less than 2 µM in assay [4]. In addition, the Emax in assay [1] was 25 to 100%; in assay [2] it was 25 to 100%; in assay [3], less than 25%; in assay [4], 25 to 100%.
As for `CC(=O)N1CCCC(C(=O)N[C@H]2CCC3(CCN(CCC(C)(C)C)CC3)c3cc(F)ccc32)C1` (stereo partly shown) [compound 59], the EC50 in assay [1] is less than 2 µM; in assay [2], less than 2 µM; in assay [3], more than 5 µM; in assay [4], 2 to 5 µM. Further, the Emax in assay [1] is 25 to 100%; in assay [2], 25 to 100%; in assay [3], less than 25%; in assay [4], less than 25%.
On to `CC(=O)N1CCCC1C(=O)N[C@H]1CCC2(CCN(CCC(C)(C)C)CC2)c2ccccc21` (stereo partly shown) [compound 60], for which the EC50 in assay [1] is less than 2 µM; in assay [2], less than 2 µM; in assay [3] it was more than 5 µM; in assay [4] it was more than 5 µM. In addition, the Emax in assay [1] was 25 to 100%; in assay [2], 25 to 100%; in assay [3] it was less than 25%; in assay [4], less than 25%.
For `CCC(=O)N[C@@H]1CCC2(CCN(CCC(C)(C)C)CC2)c2ccccc21` [compound 62], the concentration giving a half-maximal response (EC50) in assay [1] was more than 5 µM; in assay [2], less than 2 µM; in assay [3], more than 5 µM; in assay [4], more than 5 µM. Moreover, the Emax in assay [1] is less than 25%; in assay [2] it was 25 to 100%; in assay [3], less than 25%; in assay [4], less than 25%.
